≈ marks a conversion by molar mass, not a printed value. Where two headings read alike, the source gives them in different places.
What was measured:
Conditions in all cases: Klebsiella pneumoniae
[1] = system: K. pneumoniae NVT1001 and its ΔompK35/36 and/or ΔramR mutants; experiment: Etest MIC, OmpK35/36 loss and AcrAB-TolC overexpression (ΔramR) strains (Table 6); assay type: cell-based, Klebsiella pneumoniae
Outline: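 Etest strips per kit instructions; off-scale intermediate readings rounded upward to the nearest two-fold concentration. Broth microdilution (CLSI) for ceftazidime, cefotaxime only. Breakpoints: CLSI 2017 generally, CLSI 2015 for cephalothin, EUCAST 2017 for moxifloxacin.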

[2] = system: K. pneumoniae NVT1001 ΔramRΔompK35/36 mutant and its revertants; experiment: Etest MIC, ΔramRΔompK35/36 mutant and its revertants (Table 7); assay type: cell-based
[3] = system: K. pneumoniae NVT1001 strains with carbapenemase plasmids; experiment: Etest MIC of β-lactams, OmpK35/36 loss, ΔramR and/or carbapenemase (Table 9); assay type: cell-based, Klebsiella pneumoniae
Experimental: DNA fragments of the resistance genes along with their flanking regions were amplified from clinical plasmids via PCR with specific primer pairs. The resulting PCR fragments were digested and then cloned into the plasmid pACYC177 or pACYC184. The resulting plasmids were then transformed into K. pneumoniae strain NVT1001 via electroporation. The recombinant bacteria were plated onto LB agar plates containing kanamycin (50 mg/L) or chloramphenicol (50 mg/L), and the presence of the cloned gene was confirmed via PCR and DNA sequencing.
The MICs of antibiotics were determined using the Etest (Biodisk AB, Sweden) according to the manufacturer's instructions. The MICs from the Etest, which fall between standard two-fold dilutions, were rounded up to the next highest two-fold value. The MICs of ceftazidime and cefotaxime against K. pneumoniae NVT1001 harbouring the pACYC177 plasmid with blaOXA-48 were further determined using a broth microdilution test according to the recommendations of the CLSI,^25 and the results were interpreted according to the breakpoints established by the CLSI in 2017.^25 Meanwhile, due to the lack of CLSI breakpoints in 2016 and 2017, the results for cephalothin were interpreted according to the breakpoints established by the CLSI in 2015,^26 and the results for moxifloxacin were interpreted according to the breakpoints established by the EUCAST in 2017.^27

Compound: CCO/N=C(\C(=O)N[C@@H]1C(=O)N2C(C(=O)[O-])=C(Sc3nc(-c4cc[n+](C)cc4)cs3)CS[C@H]12)c1nsc(N)n1 [Ceftaroline]
- MIC ([1]; WT, NVT1001, read-out: MIC): 0.25 µg/mL (≈ 0.413 µM)
- MIC ([1]; Δ35, ΔompK35 mutant): 0.25 µg/mL (≈ 0.413 µM)
- MIC ([1]; Δ35/36, ΔompK35/36 mutant): 1 µg/mL (≈ 1.65 µM)
- MIC ([1]; Δ36, ΔompK36 mutant): 0.5 µg/mL (≈ 0.827 µM)
- MIC ([1]; ΔramR mutant): 1 µg/mL (≈ 1.65 µM)
- MIC ([1]; ΔramRΔ35, ΔramRΔompK35 mutant): 1 µg/mL (≈ 1.65 µM)
- MIC ([1]; ΔramRΔ35/36, ΔramRΔompK35/36 mutant): 4 µg/mL (≈ 6.61 µM)
- MIC ([1]; ΔramRΔ36, ΔramRΔompK36 mutant): 4 µg/mL (≈ 6.61 µM)
- MIC ([2]; ΔramRΔompK35/36::ompK35/36 revertant): 1 µg/mL
- MIC ([2]; ΔramRΔompK35/36::ompK35 revertant): 4 µg/mL
- MIC ([2]; ΔramRΔompK35/36::ompK36 revertant): 1 µg/mL
- MIC ([2]; ΔramRΔompK35/36::ramR revertant): 1 µg/mL
- MIC ([2]; ΔramRΔompK35/36::ramR::ompK35/36 revertant): 0.25 µg/mL
- MIC ([2]; ΔramRΔompK35/36::ramR::ompK35 revertant): 0.5 µg/mL
- MIC ([2]; ΔramRΔompK35/36::ramR::ompK36 revertant): 0.5 µg/mL
- MIC ([2]; ΔramRΔompK35/36 mutant): 4 µg/mL
- MIC ([3]; IMP-8 on pACYC177, WT (NVT1001), read-out: MIC): 64 µg/mL
- MIC ([3]; IMP-8 on pACYC177, Δ35 (ΔompK35 mutant)): 64 µg/mL
- MIC ([3]; IMP-8 on pACYC177, Δ35/36 (ΔompK35/36 mutant)): > 256 µg/mL
- MIC ([3]; IMP-8 on pACYC177, Δ36 (ΔompK36 mutant)): 64 µg/mL
- MIC ([3]; IMP-8 on pACYC177, ΔramR mutant): 32 µg/mL
- MIC ([3]; IMP-8 on pACYC177, ΔramRΔ35 (ΔramRΔompK35 mutant)): 64 µg/mL
- MIC ([3]; IMP-8 on pACYC177, ΔramRΔ35/36 (ΔramRΔompK35/36 mutant)): 128 µg/mL
- MIC ([3]; IMP-8 on pACYC177, ΔramRΔ36 (ΔramRΔompK36 mutant)): 64 µg/mL
- MIC ([3]; KPC-2 on pACYC177, WT (NVT1001), read-out: MIC): 256 µg/mL
- MIC ([3]; KPC-2 on pACYC177, Δ35 (ΔompK35 mutant)): > 256 µg/mL
- MIC ([3]; KPC-2 on pACYC177, Δ35/36 (ΔompK35/36 mutant)): > 256 µg/mL
- MIC ([3]; KPC-2 on pACYC177, Δ36 (ΔompK36 mutant)): > 256 µg/mL
- MIC ([3]; KPC-2 on pACYC177, ΔramR mutant): > 256 µg/mL
- MIC ([3]; KPC-2 on pACYC177, ΔramRΔ35 (ΔramRΔompK35 mutant)): > 256 µg/mL
- MIC ([3]; KPC-2 on pACYC177, ΔramRΔ35/36 (ΔramRΔompK35/36 mutant)): > 256 µg/mL
- MIC ([3]; KPC-2 on pACYC177, ΔramRΔ36 (ΔramRΔompK36 mutant)): > 256 µg/mL
- MIC ([3]; KPC-3 on pACYC177, WT (NVT1001), read-out: MIC): 256 µg/mL
- MIC ([3]; KPC-3 on pACYC177, Δ35 (ΔompK35 mutant)): 256 µg/mL
- MIC ([3]; KPC-3 on pACYC177, Δ35/36 (ΔompK35/36 mutant)): > 256 µg/mL
- MIC ([3]; KPC-3 on pACYC177, Δ36 (ΔompK36 mutant)): > 256 µg/mL
- MIC ([3]; KPC-3 on pACYC177, ΔramR mutant): 256 µg/mL
- MIC ([3]; KPC-3 on pACYC177, ΔramRΔ35 (ΔramRΔompK35 mutant)): 256 µg/mL
- MIC ([3]; KPC-3 on pACYC177, ΔramRΔ35/36 (ΔramRΔompK35/36 mutant)): > 256 µg/mL
- MIC ([3]; KPC-3 on pACYC177, ΔramRΔ36 (ΔramRΔompK36 mutant)): > 256 µg/mL
- MIC ([3]; NDM-1 on pACYC177, WT (NVT1001), read-out: MIC): > 256 µg/mL
- MIC ([3]; NDM-1 on pACYC177, Δ35 (ΔompK35 mutant)): > 256 µg/mL
- MIC ([3]; NDM-1 on pACYC177, Δ35/36 (ΔompK35/36 mutant)): > 256 µg/mL
- MIC ([3]; NDM-1 on pACYC177, Δ36 (ΔompK36 mutant)): > 256 µg/mL
- MIC ([3]; NDM-1 on pACYC177, ΔramR mutant): > 256 µg/mL
- MIC ([3]; NDM-1 on pACYC177, ΔramRΔ35 (ΔramRΔompK35 mutant)): > 256 µg/mL
- MIC ([3]; NDM-1 on pACYC177, ΔramRΔ35/36 (ΔramRΔompK35/36 mutant)): > 256 µg/mL
- MIC ([3]; NDM-1 on pACYC177, ΔramRΔ36 (ΔramRΔompK36 mutant)): > 256 µg/mL
- MIC ([3]; OXA-48 on pACYC177, WT (NVT1001), read-out: MIC): 8 µg/mL
- MIC ([3]; OXA-48 on pACYC177, Δ35 (ΔompK35 mutant)): 8 µg/mL
- MIC ([3]; OXA-48 on pACYC177, Δ35/36 (ΔompK35/36 mutant)): 32 µg/mL
- MIC ([3]; OXA-48 on pACYC177, Δ36 (ΔompK36 mutant)): 8 µg/mL
- MIC ([3]; OXA-48 on pACYC177, ΔramR mutant): 8 µg/mL
- MIC ([3]; OXA-48 on pACYC177, ΔramRΔ35 (ΔramRΔompK35 mutant)): 8 µg/mL
- MIC ([3]; OXA-48 on pACYC177, ΔramRΔ35/36 (ΔramRΔompK35/36 mutant)): 16 µg/mL
- MIC ([3]; OXA-48 on pACYC177, ΔramRΔ36 (ΔramRΔompK36 mutant)): 8 µg/mL
- MIC ([3]; VIM-1 on pACYC177, WT (NVT1001), read-out: MIC): 256 µg/mL
- MIC ([3]; VIM-1 on pACYC177, Δ35 (ΔompK35 mutant)): > 256 µg/mL
- MIC ([3]; VIM-1 on pACYC177, Δ35/36 (ΔompK35/36 mutant)): > 256 µg/mL
- MIC ([3]; VIM-1 on pACYC177, Δ36 (ΔompK36 mutant)): > 256 µg/mL
- MIC ([3]; VIM-1 on pACYC177, ΔramR mutant): > 256 µg/mL
- MIC ([3]; VIM-1 on pACYC177, ΔramRΔ35 (ΔramRΔompK35 mutant)): > 256 µg/mL
- MIC ([3]; VIM-1 on pACYC177, ΔramRΔ35/36 (ΔramRΔompK35/36 mutant)): > 256 µg/mL
- MIC ([3]; VIM-1 on pACYC177, ΔramRΔ36 (ΔramRΔompK36 mutant)): > 256 µg/mL
- MIC ([3]; no supplemental plasmid, WT (NVT1001), read-out: MIC): 0.25 µg/mL
- MIC ([3]; no supplemental plasmid, Δ35 (ΔompK35 mutant)): 0.25 µg/mL
- MIC ([3]; no supplemental plasmid, Δ35/36 (ΔompK35/36 mutant)): 1 µg/mL
- MIC ([3]; no supplemental plasmid, Δ36 (ΔompK36 mutant)): 0.5 µg/mL
- MIC ([3]; no supplemental plasmid, ΔramR mutant): 1 µg/mL
- MIC ([3]; no supplemental plasmid, ΔramRΔ35 (ΔramRΔompK35 mutant)): 1 µg/mL
- MIC ([3]; no supplemental plasmid, ΔramRΔ35/36 (ΔramRΔompK35/36 mutant)): 4 µg/mL
- MIC ([3]; no supplemental plasmid, ΔramRΔ36 (ΔramRΔompK36 mutant)): 4 µg/mL

— patent publication US10760110B2, “Antibiotic testing and screening system” (priority 2017, dated 2020)
